# Measurements taken from patent publication US20220338473A1, “USE OF BENZYL ALCOHOL AS A HERBICIDE” (INNOVI, priority 2019, published 2022).
# Legend:
# [1] = test system: squares of grass; assay: Outdoor assays with benzyl alcohol used alone; format: in vivo
# Procedure: The outdoor assays were carried out on squares of grass having a surface area of 1 m^2. The application of the product is carried out with a compression sprayer which makes it possible to spray 20 to 100 g liquid over a surface area of 1 m^2 (equivalent to 200-1000 L/Ha).
# The treated squares of grass are sprayed with a total quantity of water and pure benzyl alcohol (PanReac AppliChem—ITW Reagents) of 20 g (equivalent 200 l/Ha) including 0.5 g benzyl alcohol (equivalent to 5 L/Ha pure benzyl alcohol).
# The control squares of grass receive a total quantity of 20 g water alone.
# The following measurements and evaluations were carried out: • Percentage of the surface area affected: Following the assays in pots, it was noted that the change in colour correlated with the collapsing and the death of the plants. The time necessary to impact the colour of the grass as well as its surface area was evaluated. • Measurement of the collapsing of the grass: the distance between the ground and the highest part of 10 blades of grass selected at random in a square is measured. The average of these 10 blades is calculated and, after treatment, when this average distance is reduced by 30%, the collapsing time is determined.
# Assay no. 2 was carried out under the same conditions as assay no. 1, except that the treated squares of grass are sprayed with a total quantity of water and benzyl alcohol of 60 g (equivalent 600 L/Ha) including 5 g pure benzyl alcohol (equivalent to 50 L/Ha pure benzyl alcohol).
# Assay no. 3 was carried out under the same conditions as assay no. 1, except that the treated squares of grass are sprayed with a total quantity of 20 g pure benzyl alcohol (equivalent to 200 L/Ha pure benzyl alcohol).
# Assay no. 4 was carried out under the same conditions as assay no. 1, except that the treated squares of grass are sprayed with a total quantity of water and benzyl alcohol of 60 g (equivalent 600 L/Ha) including 40 g pure benzyl alcohol (equivalent to 400 L/Ha pure benzyl alcohol).
# Assay no. 5 was carried out under the same conditions as assay no. 1, except that the treated squares of grass are sprayed with a total quantity of water and benzyl alcohol of 100 g (equivalent 1000 L/Ha) including 60 g pure benzyl alcohol (equivalent to 600 L/Ha pure benzyl alcohol).
# Assay no. 6 was carried out under the same conditions as assay no. 1, except that the treated squares of grass are sprayed with a total quantity of 80 g pure benzyl alcohol (equivalent to 800 L/Ha pure benzyl alcohol).
# [2] = test system: Grass; assay: Non-selective activity on herbaceous plants (spraying, potted); format: in vivo, grass of the ryegrass type; details: 4 g benzyl alcohol (200 L/Ha) in 8 g total (400 L/Ha)
# Procedure: The non-selective character of benzyl alcohol was studied on 3 common varieties of herbaceous plants, two dicotyledons (dandelions and clover) and a monocotyledon (grass).
# The grass of the ryegrass type makes it possible to confirm that the spectrum of action of benzyl alcohol is broad.
# The assays were carried out on potted plants. The application of the product is carried out with a trigger spray bottle which makes it possible to spray 1 g of product per spraying, as microdroplets.
# The treated plants are sprinkled with different quantities of water comprising different quantities of pure benzyl alcohol (PanReac AppliChem—ITW Reagents). The untreated (control) plants are sprinkled with the same total quantity of water only.
# The plants are observed at the following times: T0, 6 h, 24 h, 48 h, 72 h, 96 h. The collapsing of the plant, the colour intensity and the diameter of the plant were measured as indicated in Example 1.
# [3] = test system: Chenopodium album (CHEAL); assay: Systemic action through contact with the leaves: metabolic activity by epifluorescence microscopy; format: in vivo; details: 20 L/ha, control group 5
# Procedure: Chenopodium album (CHEAL) seeds are sown in Petri dishes in vermiculite moistened with a 0.2% solution of […]. The dishes are incubated in a climatic chamber at 15° C./20° C. night/day and 14 h photoperiod up to the stage of emergence of the cotyledons. The plantlets are then transplanted, at a rate of 6 plants per pot and 5 pots in each of the groups (treated group and control group), in a mixture of agricultural earth:vermiculite (50:50).
# The plantlets are cultivated under the same environmental conditions as previously up to the stage BBCH12-14.
# The plants are treated with benzyl alcohol at the stage BBCH12-14 with a dose of 20 L/ha benzyl alcohol with 660 g/I water, i.e. 13.2 kg benzyl alcohol/ha.
# The product is applied in a volume corresponding to 300 L/ha using a spraying bench equipped with agricultural nozzles (Turbo Teejet TTII0015).
# After treatment, the plants are returned to cultivation in a climatic chamber at 15° C./20° C. night/day and 14 h photoperiod.
# A control group is not treated and only receives water.
# […] observations were carried out by epifluorescence microscopy on the leaves and the roots of the treated plants and the control plants, 24 h and 7 days after treatment on the leaves.
# The results observed on the epifluorescence microscopy images are reported in Tables 11 and 12 below, in which a mark of 0 to 5 is attributed depending on the intensity and the surface area of the fluorescence observed, where 0=no metabolic activity, and 5=complete metabolic activity.
# Before uprooting and epifluorescence microscopy analysis, the treated plants were divided into 2 groups: • Group 1: plants not showing or showing few symptoms of drying on the treated area (leaf) • Group 2: plants having a dry leaf on the treated area (leaf)
# [4] = 24 h after leaf spraying, Group 1 (no or few symptoms of drying)
# [5] = 24 h after leaf spraying, Group 2 (dry leaf on treated area)
# [6] = 7 days after leaf spraying, Group 1 (no or few symptoms of drying)
# [7] = 7 days after leaf spraying, Group 2 (dry leaf on treated area)
compound,measurement,setting,value
OCc1ccccc1 [benzyl alcohol],Collapsing of the grass: time after treatment to average collapsing of 30%,"[1]; Assay no. 1: 1 m2 grass outdoors, 0.5 g benzyl alcohol (5 L/Ha) in 20 g total (200 l/Ha)",72 h
same,Maximum percentage of the surface area affected,"[1]; Assay no. 1: 1 m2 grass outdoors, 0.5 g benzyl alcohol (5 L/Ha) in 20 g total (200 l/Ha), observed 96 h after treatment",45%
same,Collapsing of the grass: time after treatment to average collapsing of 30%,"[1]; Assay no. 2: 1 m2 grass outdoors, 5 g benzyl alcohol (50 L/Ha) in 60 g total (600 L/Ha)",48 h
same,Maximum percentage of the surface area affected,"[1]; Assay no. 2: 1 m2 grass outdoors, 5 g benzyl alcohol (50 L/Ha) in 60 g total (600 L/Ha), observed 72 h after treatment",60%
same,Collapsing of the grass: time after treatment to average collapsing of 30%,"[1]; Assay no. 3: 1 m2 grass outdoors, 20 g pure benzyl alcohol (200 L/Ha)",48 h
same,Maximum percentage of the surface area affected,"[1]; Assay no. 3: 1 m2 grass outdoors, 20 g pure benzyl alcohol (200 L/Ha), observed 48 h after treatment",80%
same,Collapsing of the grass: time after treatment to average collapsing of 30%,"[1]; Assay no. 4: 1 m2 grass outdoors, 40 g benzyl alcohol (400 L/Ha) in 60 g total (600 L/Ha)",24 h
same,Maximum percentage of the surface area affected,"[1]; Assay no. 4: 1 m2 grass outdoors, 40 g benzyl alcohol (400 L/Ha) in 60 g total (600 L/Ha), observed 24 h after treatment",100%
same,Collapsing of the grass: time after treatment to average collapsing of 30%,"[1]; Assay no. 5: 1 m2 grass outdoors, 60 g benzyl alcohol (600 L/Ha) in 100 g total (1000 L/Ha)",6 h
same,Maximum percentage of the surface area affected,"[1]; Assay no. 5: 1 m2 grass outdoors, 60 g benzyl alcohol (600 L/Ha) in 100 g total (1000 L/Ha), observed 24 h after treatment",100%
same,Collapsing of the grass: time after treatment to average collapsing of 30%,"[1]; Assay no. 6: 1 m2 grass outdoors, 80 g pure benzyl alcohol (800 L/Ha)",6 h
same,Maximum percentage of the surface area affected,"[1]; Assay no. 6: 1 m2 grass outdoors, 80 g pure benzyl alcohol (800 L/Ha), observed 6 h after treatment",100%
same,Collapsing (score and time): time to pass from score 5 (T0) to score 1,[2],1 to 48 h
same,Colour intensity (score and time): time to pass from score 5 (T0) to score 1,[2],1 to 24 h
same,Diameter (score and time): time to pass from score 5 (T0) to score 1,[2],1 to 48 h
same,"Metabolic activity on the leaves (mark 0 to 5; 0=no, 5=complete metabolic activity)",[3]; [4],1
same,"Metabolic activity on the roots (mark 0 to 5; 0=no, 5=complete metabolic activity)",[3]; [4],2
same,"Metabolic activity on the leaves (mark 0 to 5; 0=no, 5=complete metabolic activity)",[3]; [5],1
same,"Metabolic activity on the roots (mark 0 to 5; 0=no, 5=complete metabolic activity)",[3]; [5],2.5
same,"Metabolic activity on the leaves (mark 0 to 5; 0=no, 5=complete metabolic activity)",[3]; [6],0.5
same,"Metabolic activity on the roots (mark 0 to 5; 0=no, 5=complete metabolic activity)",[3]; [6],1.5
same,"Metabolic activity on the leaves (mark 0 to 5; 0=no, 5=complete metabolic activity)",[3]; [7],0
same,"Metabolic activity on the roots (mark 0 to 5; 0=no, 5=complete metabolic activity)",[3]; [7],2
